Results taken from US12064482B2, “Triplet-triplet energy transfer with light excitation at long wavelengths and methods thereof” (THE UNIVERSITY OF HONG KONG, priority 2018, dated 2024).

Columns and labels:
[1] = Photocleavage of BODIPY-CAB and photorelease of CAB in solution, determined by HPLC; type: physicochemical
Source text: FIG. 4. HPLC spectra of CAB (10^−4 M), PtTPBP (10^−5 M), BODIPY-CAB (10^−4 M), BODIPY-CAB (10^−4 M) with 530 nm irradiation (44 mW/cm^2) for 15 s under N2 atmosphere, the mixture of BODIPY-CAB (10^−4 M) and PtTPBP (10^−5 M) with 625 nm irradiation (44 mW/cm^2) for 15 s under N2 atmosphere, the mixture of BODIPY-CAB (10^−4 M) and PtTPBP (10^−5 M) without irradiation under N2 atmosphere, and BODIPY-CAB (10^−4 M) with 625 nm irradiation (44 mW/cm^2) for 15 s under N2 atmosphere. The detection wavelength was 260 nm. A small amount of toluene, whose peak was located at ˜8.7 min, was used to increase the solubility of PtTPBP. The yellow arrows indicate the signal of CAB; the red arrows indicate the signal of BODIPY-CAB; and the green arrows indicate the signal of PtTPBP.
FIG. 5. Photocleavage rate of the prodrug (BODIPY-CAB), as determined by HPLC (detected at 540 nm), after irradiation with 625 nm LED light at 44 mW/cm^2. The mixed solution of BODIPY-CAB (10^−4 M) and PtTPBP (10^−5 M, […] or 0 M) was protected under nitrogen (N2) or exposed in the air, and then irradiated for different time periods in the mixed solvents of dichloromethane (DCM) and methanol (1:9, v/v). The solution (50 μL) was then analyzed by HPLC to measure the concentration of BODIPY-CAB. Data are means±SD, n=3.
FIG. 6. Photorelease of the free drug (CAB), as determined by HPLC (detected at 260 nm), after irradiation with 625 nm LED light at 44 mW/cm^2. The mixed solution of BODIPY-CAB (10^−4 M) and PtTPBP ([…], 5×10^−6 M, 10^−6 M or 0 M) was protected under nitrogen (N2) or exposed in the air, and then irradiated for different time periods in the mixed solvents of dichloromethane (DCM) and methanol (1:9, v/v). The solution (50 μL) was then analyzed by HPLC to measure the concentration of CAB. Data are means f SD, n=3.
The intermediates and the final product were characterized by proton nuclear magnetic resonance (^1H NMR) spectra (FIG. 12-FIG. 15). The absorption and emission peaks of BODIPY-CAB were located at the wavelength of 543 nm and 567 nm, respectively (FIG. 3). To confirm whether the BODIPY prodrug could be sensitized by PtTPBP and could further be cleaved to release the drug, high performance liquid chromatography (HPLC) was utilized to monitor the generation of CAB. […] After addition of photosensitizer PtTPBP, the mixture solution of PtTPBP and BODIPY-CAB was irradiated with 625 nm light for 15 sec.
Furthermore, the photocleavage of BODIPY-CAB was investigated with different ratios of BODIPY-CAB and PtTPBP upon 625 nm light irradiation. […] When the concentration of photosensitizer was decreased, the photocleavage of BODIPY-CAB slowed down. […] Moreover, as O2 can quench the triplet excited state of PtTPBP, the prodrug cannot be cleaved efficiently in the presence of O2.

[2] = literature ref. [10]; cited from earlier work

Structure (SMILES)	generation of CAB (HPLC) ([1]; 530 nm (44 mW/cm^2), 15 s, no photosensitizer, N2)	generation of CAB (HPLC) ([1]; 625 nm (44 mW/cm^2), 15 s, with PtTPBP, N2)	generation of CAB (HPLC) ([1]; 625 nm, 15 s, in the absence of PtTPBP, N2)	rate of photocleavage and photorelease ([1]; 625 nm, with PtTPBP, in the air atmosphere (O2))	prodrug remained in the solution ([1]; BODIPY-CAB:PtTPBP 100:1, 625 nm LED 44 mW/cm^2, 30 s, N2)	photocleavage of the prodrug ([1]; BODIPY-CAB:PtTPBP 100:10, 625 nm LED 44 mW/cm^2, 15 s, N2)	free drug CAB released ([1]; BODIPY-CAB:PtTPBP 100:10, 625 nm LED 44 mW/cm^2, 15 s, N2, DCM/methanol 1:9)	generation of CAB (HPLC) ([1]; mixture with PtTPBP not irradiated, N2)	cytotoxicity [2]
CC1=C(I)C(C)=[N+]2C1=C(COC(=O)CCCc1ccc(N(CCCl)CCCl)cc1)c1c(C)c(I)c(C)n1[B-]2(C)C [BODIPY-CAB]	leads to the release of CAB	new peak located at ˜11.2 min was appeared	did not generate CAB	dramatically deceased rate of photocleavage and photorelease	59.6%	almost cleaved completely	41.7%	did not generate CAB	
[Pt+2].c1ccc(-c2c3nc(c(-c4ccccc4)c4[n-]c(c(-c5ccccc5)c5nc(c(-c6ccccc6)c6[n-]c2c2ccccc62)-c2ccccc2-5)c2ccccc42)-c2ccccc2-3)cc1 [PtTPBP, platinum (II) tetraphenyltetrabenzoporphyrin]									minimal
